# Results taken from the supplement of paper PMC10307832.
# How the values were obtained:
# Assay in all cases: relative viability (nuclei count vs DMSO), 5 days (fraction); higher = more cells survive
# Masitinib + Lapatinib = compound: Cc1ccc(NC(=O)c2ccc(CN3CCN(C)CC3)cc2)cc1Nc1nc(-c2cccnc2)cs1 [Masitinib] + CS(=O)(=O)CCNCc1ccc(-c2ccc3ncnc(Nc4ccc(OCc5cccc(F)c5)c(Cl)c4)c3c2)o1 [Lapatinib] (partner 2 µM)
# Summary of the method: (§1)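 Lung cancer cell lines were seeded in 1536-well plates and dosed by pin tool the next day, with either a single drug or a fixed anchor-drug dose combined with five library-drug doses (not always all listed) spaced in √10 steps. Five days later, one step fixed the cells and stained their nuclei (final 0.05% Triton X-100, 1% formaldehyde, 1 ug/ml Hoechst), and nuclei were counted on 4× images. Relative viability is the nuclei count in treated wells divided by the count in vehicle wells, and each value is the median of duplicate plates.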
# [1] = compound: CC1=CC(=CC=C1)NC2=NC(=CS2)C3=CC=NC=C3 + Cc1nc(Nc2ncc(C(=O)Nc3c(C)cccc3Cl)s2)cc(N2CCN(CCO)CC2)n1 [Dasatinib] (partner 0.075 µM)
# Summary of the method: as §1
# [2] = compound: CC1=CC(=CC=C1)NC2=NC(=CS2)C3=CC=NC=C3 + CC(C)C[C@H](NC(=O)[C@H](Cc1ccccc1)NC(=O)c1cnccn1)B(O)O [Bortezomib] (partner 0.002 µM)
# Summary of the method: as §1
# [3] = compound: CC1=CC(=CC=C1)NC2=NC(=CS2)C3=CC=NC=C3 + CCNC(=O)c1noc(-c2cc(C(C)C)c(O)cc2O)c1-c1ccc(CN2CCOCC2)cc1 [Luminespib] (partner 0.01 µM)
# Summary of the method: as §1
cell line,measurement,setting,value
UMC-11,relative viability,Masitinib + Lapatinib; first compound 0.01 µM,0.82
same,relative viability,Masitinib + Lapatinib; first compound 0.03162 µM,0.914
same,relative viability,Masitinib + Lapatinib; first compound 0.1 µM,0.979
same,relative viability,Masitinib + Lapatinib; first compound 0.3162 µM,1.06
same,relative viability,Masitinib + Lapatinib; first compound 1 µM,1.05
same,relative viability,[1]; first compound 0.08 µM,0.477
same,relative viability,[1]; first compound 0.253 µM,0.494
same,relative viability,[1]; first compound 0.8 µM,0.468
same,relative viability,[1]; first compound 2.53 µM,0.481
same,relative viability,[1]; first compound 8 µM,0.534
same,relative viability,[2]; first compound 0.08 µM,0.761
same,relative viability,[2]; first compound 0.253 µM,0.839
same,relative viability,[2]; first compound 0.8 µM,0.635
same,relative viability,[2]; first compound 2.53 µM,0.67
same,relative viability,[2]; first compound 8 µM,0.686
same,relative viability,[3]; first compound 0.08 µM,1.01
same,relative viability,[3]; first compound 0.253 µM,1.05
same,relative viability,[3]; first compound 0.8 µM,1.06
same,relative viability,[3]; first compound 2.53 µM,1.07
same,relative viability,[3]; first compound 8 µM,1.09
